Values joined by “and” are separate entries in the source; they are usually repeats but may differ in a detail not shown here. Equal values may be shown once. A value given as a limit tells only on which side of the number the result lay.

The subject of one series is Oryctolagus sp. The settings on record: for LD50: acute.
The subject of series [1] is Rattus norvegicus. The settings on record: for LC50 / LD50: acute.
In series [2] the test system is Rattus norvegicus.
Series [3] has as its system Rattus norvegicus. The settings on record: subchronic, oral; for NOEL: gavage, M, Sprague-Dawley.
For another series, the system named is Mus musculus. The settings on record: chronic; duration: 81 weeks; oral; M/F; B6C3F1; respiratory.
Series [4] has as its system Rattus norvegicus. This is another data set of the same source.
Series [5] concerns Rattus norvegicus. The settings on record: developmental; oral; M/F; reduced pup weanling weight.
Where [6] appears, read: developmental, duration: 10 days, oral, gavage, Sprague-Dawley.
Setting [7] is: subchronic, duration: 30 days, oral, diet, Sprague-Dawley.
Setting [8] is: reproduction developmental, oral, gavage, Sprague-Dawley, generation: F1.
Where [9] appears, read: chronic, duration: 6 months, inhalation, Sprague-Dawley.
Where [10] appears, read: Hershberger, duration: 10 days, oral, gavage, Sprague-Dawley, active + Negative + Antiandrogenic + anti-androgenic.

By NOAEL is commonly meant the highest tested level that showed no adverse finding. With `CN1C(=O)c2ccc(Oc3ccc(C(C)(C)c4ccc(Oc5ccc6c(c5)C(=O)N(C)C6=O)cc4)cc3)cc2C1=O`, the NOAEC was greater than 1000 mg/kg-day in the series on Oryctolagus sp. (developmental, duration: 12 days, oral, gavage, New Zealand); greater than 1000 mg/kg-day with Oryctolagus sp. (reproduction developmental, duration: 13 days, oral, gavage, F, New Zealand); greater than 1000 mg/kg-day in the series on Oryctolagus sp. (reproduction developmental, duration: 13 days, oral, gavage, New Zealand). Moreover, the no-observed-adverse-effect level (NOAEL) was greater than 1000 mg/kg-day in the series with Oryctolagus sp. (reproduction developmental, duration: 12 days, oral, gavage, F, New Zealand); greater than 1000 mg/kg-day with Rattus norvegicus [1] (setting [6]); greater than 1000 mg/kg-day in the series on Rattus norvegicus [1] (reproduction developmental, duration: 4 weeks, oral, gavage, Sprague-Dawley, generation: F0); greater than 1000 mg/kg-day with Rattus norvegicus [1] (reproduction developmental, duration: 4 weeks, oral, gavage, Sprague-Dawley, generation: F1); greater than 1000 mg/kg-day with Rattus norvegicus [1] (reproduction developmental, duration: 10 days, oral, gavage, Crl:CD(SD) BR); ≥ 2750 mg/kg-day and ≤ 3160 mg/kg-day in the series with Rattus norvegicus [1] (setting [7]). In addition, in the series on Rattus norvegicus [1] (setting [7]), the “LOAEL (% diet)” value was greater than 4. Besides, the “NOAEL (% diet)” value in the series with Rattus norvegicus [1] (setting [7]) was found to be 4.

In the series with Rattus norvegicus [2] (short-term, duration: 3 weeks, inhalation, whole body, M, F-344, neurological), `CCCBr` [1-Bromopropane] displayed a no-observed-adverse-effect level (NOAEL) of 50.3 mg/m3.

For orientation: LOAEL means the lowest tested level that showed an adverse finding. For the molecule `Cc1cccc2ccccc12` [1-Methylnaphthalene], the NOEL with Rattus norvegicus [3] (Absolute Organ Weight: Liver increase + Relative Organ Weight: Liver increase) is 50 mg/kg-day. Further, in the series with Mus musculus, the lowest-observed-adverse-effect level (LOAEL) was determined as 71.6 mg/kg-day.

As to `CCCCC(CC)CO[N+](=O)[O-]` (centres undefined) [2-Ethylhexyl nitrate], the NOAEL is greater than 500 mg/kg-day with Oryctolagus sp. (short-term, duration: 15 days, dermal, semiocclusive, Albino); 20 mg/kg-day with Rattus norvegicus [1] (reproduction developmental, oral, gavage, Sprague-Dawley, generation: F0); 100 mg/kg-day with Rattus norvegicus [1] (setting [8]); 301 mg/m3 in the series on Rattus norvegicus [1] (short-term, duration: 14 days, inhalation, Sprague-Dawley); 20 mg/kg-day with Rattus norvegicus [1] (short-term, duration: 28 days, oral, gavage, Sprague-Dawley).

The LD50 is the dose expected to kill half of the subjects tested. A high value points to lower toxicity. Turning to `Cc1ccccn1` [2-Methylpyridine], the 50% lethal dose (LD50) is ≥ 252 mg/kg and ≤ 500 mg/kg with Oryctolagus sp. (dermal); ≥ 200 mg/kg and ≤ 316 mg/kg in the series with Oryctolagus sp. (dermal, occlusive, New Zealand); 810 mg/kg and > 950 mg/kg in the series on Rattus norvegicus [1] (oral, gavage, Sprague-Dawley). In addition, the LC50 in the series on Rattus norvegicus [1] (inhalation) was ≥ 7620 mg/m3 and ≤ 15200 mg/m3; with Rattus norvegicus [1] (inhalation, Sprague-Dawley), less than 13200 mg/m3. The LOAEL in the series with Rattus norvegicus [1] (setting [9]) is greater than 381 mg/m3. Also, the no-observed-adverse-effect level (NOAEL) with Rattus norvegicus [1] (setting [9]) is no less than 381 mg/m3.

As to `CC(C)(c1ccc(Oc2ccc3c(c2)C(=O)OC3=O)cc1)c1ccc(Oc2ccc3c(c2)C(=O)OC3=O)cc1` [4,4'-(4,4'-Isopropylidenediphenoxy)bisphthalic dianhydride], the LD50 with Oryctolagus sp. (dermal, New Zealand) was greater than 2000 mg/kg; in the series on Oryctolagus sp. (dermal, occlusive, New Zealand), greater than 2000 mg/kg; in the series on Rattus norvegicus [1] (oral, gavage, Spartan), greater than 5000 mg/kg; in the series on Rattus norvegicus [1] (oral, gavage, Sprague-Dawley), greater than 5000 mg/kg. Also, the no observed adverse effect level (NOAEL) with Rattus norvegicus [1] (setting [6]) is greater than 1000 mg/kg-day; with Rattus norvegicus [1] (reproduction developmental, oral, gavage, Sprague-Dawley), greater than 1000 mg/kg-day; with Rattus norvegicus [1] (setting [8]), greater than 1000 mg/kg-day. The “LOAEL (% diet)” value in the series with Rattus norvegicus [1] (setting [7]) is greater than 4. The “NOAEL (% diet)” value in the series on Rattus norvegicus [1] (setting [7]) is 4.

With `Nc1ccc(Cc2ccc(N)cc2)cc1` [4,4'-Diaminobiphenyl methane], the no-observed-adverse-effect level (NOAEL) is less than 12.2 mg/kg-day with Rattus norvegicus [3] (duration: 90 days, drinking water, M/F, Tif / RAlf, Deaths + Body Weight Changes: Weight gain + Food Consumption: decrease + Water Consumption: decrease + Hematology: RBC decrease, HGB …) and 8.3 mg/kg-day with Rattus norvegicus [2] (subchronic, duration: 12 weeks, oral, gavage, M/F, Wistar, hepatic). For the same molecule, the lowest observed adverse effect level (LOAEL) with Rattus norvegicus [2] (acute, duration: 1 days, oral, gavage, M, Sprague-Dawley, hepatic) turned out to be 25 mg/kg-day.

For the molecule `Oc1ccc(-c2ccccc2)cc1` [4-Phenylphenol], the NOEL with Rattus norvegicus [3] (Body Weight Changes: Reduced gain + Food Consumption: decrease + Hematology: WBC increase, NeutrophilSegment(%) decrease, Lymphocyte(%) …) turned out to be 30 mg/kg-day. This molecule also displayed an LEL with Rattus norvegicus [4] (uterotrophic, duration: 3 days, injection, subcutaneous, Active) of 10 mg/kg-day.

As for `CCCCNC(=O)n1c(NC(=O)OC)nc2ccccc21` [Benomyl], in the series with Rattus norvegicus [5], the LEL is 25 mg/kg-day and the NOEL turned out to be 5 mg/kg-day. In the series on Rattus norvegicus [4] (setting [10]), the LOEL was 1000 mg/kg-day and the NOEL came out at 300 mg/kg-day.

The record behind these values is EPA's ToxValDB 9.5.
